Assay: xn = mol fraction of the nth substance listed
Details: 101 kPa, Liquid; for viscosity: Falling or rolling sphere viscometry; for mass density: Vibrating tube method

CCCO [propan-1-ol] + CCO
Details	mass density [kg/m3]	viscosity [mPa·s]
293.15 K, x2 = 0	803.58	2.195
293.15 K, x2 = 0.1	802.08	2.034
293.15 K, x2 = 0.2	800.86	1.92
293.15 K, x2 = 0.301	799.68	1.825
293.15 K, x2 = 0.4	798.4	1.684
293.15 K, x2 = 0.5	797.31	1.586
293.15 K, x2 = 0.599	795.87	1.505
293.15 K, x2 = 0.701	794.36	1.408
293.15 K, x2 = 0.8	792.88	1.324
293.15 K, x2 = 0.9	791.44	1.242
298.15 K, x2 = 0	799.59	1.902
298.15 K, x2 = 0.1	798.08	1.81
298.15 K, x2 = 0.2	796.82	1.713
298.15 K, x2 = 0.301	795.65	1.632
298.15 K, x2 = 0.4	794.33	1.511
298.15 K, x2 = 0.5	793.22	1.425
298.15 K, x2 = 0.599	791.75	1.355
298.15 K, x2 = 0.701	790.21	1.272
298.15 K, x2 = 0.8	788.69	1.198
298.15 K, x2 = 0.9	787.22	1.127
303.15 K, x2 = 0	795.58	1.694
303.15 K, x2 = 0.1	794.05	1.615
303.15 K, x2 = 0.2	792.77	1.533
303.15 K, x2 = 0.301	791.57	1.464
303.15 K, x2 = 0.4	790.22	1.359
303.15 K, x2 = 0.5	789.08	1.284
303.15 K, x2 = 0.599	787.59	1.225
303.15 K, x2 = 0.701	786.02	1.152
303.15 K, x2 = 0.8	784.47	1.088
303.15 K, x2 = 0.9	782.96	1.024
308.15 K, x2 = 0	791.53	1.511
308.15 K, x2 = 0.1	789.98	1.446
308.15 K, x2 = 0.2	788.8	1.376
308.15 K, x2 = 0.301	787.45	1.317
308.15 K, x2 = 0.4	786.08	1.225
308.15 K, x2 = 0.5	784.92	1.16
308.15 K, x2 = 0.599	783.4	1.11
308.15 K, x2 = 0.701	781.8	1.046
308.15 K, x2 = 0.8	780.21	0.989
308.15 K, x2 = 0.9	778.67	0.933
313.15 K, x2 = 0	787.44	1.352
313.15 K, x2 = 0.1	785.86	1.297
313.15 K, x2 = 0.2	784.66	1.239
313.15 K, x2 = 0.301	783.29	1.188
313.15 K, x2 = 0.4	781.9	1.107
313.15 K, x2 = 0.5	780.71	1.051
313.15 K, x2 = 0.599	779.16	1.007
313.15 K, x2 = 0.701	777.53	0.952
313.15 K, x2 = 0.8	775.91	0.901
313.15 K, x2 = 0.9	774.33	0.852
318.15 K, x2 = 0	783.3	1.214
318.15 K, x2 = 0.1	781.7	1.167
318.15 K, x2 = 0.2	780.48	1.118
318.15 K, x2 = 0.301	779.09	1.074
318.15 K, x2 = 0.4	777.68	1.003
318.15 K, x2 = 0.5	776.45	0.954
318.15 K, x2 = 0.599	774.88	0.916
318.15 K, x2 = 0.701	773.22	0.867
318.15 K, x2 = 0.8	771.56	0.823
318.15 K, x2 = 0.9	769.95	0.78
323.15 K, x2 = 0	779.11	1.093
323.15 K, x2 = 0.1	777.49	1.053
323.15 K, x2 = 0.2	776.24	1.012
323.15 K, x2 = 0.301	774.83	0.973
323.15 K, x2 = 0.4	773.39	0.911
323.15 K, x2 = 0.5	772.14	0.867
323.15 K, x2 = 0.599	770.54	0.835
323.15 K, x2 = 0.701	768.85	0.792
323.15 K, x2 = 0.8	767.16	0.753
323.15 K, x2 = 0.9	765.52	0.715
328.15 K, x2 = 0	774.86	0.986
328.15 K, x2 = 0.1	773.22	0.953
328.15 K, x2 = 0.2	771.95	0.919
328.15 K, x2 = 0.301	770.52	0.884
328.15 K, x2 = 0.4	769.06	0.829
328.15 K, x2 = 0.5	767.78	0.79
328.15 K, x2 = 0.599	766.15	0.763
328.15 K, x2 = 0.701	764.43	0.725
328.15 K, x2 = 0.8	762.71	0.69
328.15 K, x2 = 0.9	761.02	0.657

Reference: the NIST ThermoML archive (doi:10.1021/je300632p)
